Data: article PMC8369945 (Hepatology Communications, 2021)
“Also recorded” adds a separate entry of the source.

Legend:
C57BL/6J male mice = experiment: Weight gain study in mouse; type: in vivo; details: normal C57BL/6J male mice, pio 30, PXL065 15, d-S-pio 15 mg/kg/day, twice daily; for body weight versus vehicle: after 10 days of dosing
[1] = test system: C57BL/6J mice on CD or MCD diet; experiment: Choline-deficient; type: in vivo, mouse; details: for markers of NASH progression: two diet models (d-S-pio only CD)
db/db mice = experiment: db/db mouse model of T2DM; type: in vivo; details: 10 days once daily p.o., pio 30, PXL065 20, d-S-pio 20 mg/kg
[2] = Phase 1a clinical study, pharmacokinetics in healthy subjects; details: human, single 22.5 mg PXL065
PPARα = biological target: T1, PPARα (Homo sapiens, UniProt Q07869); experiment: PPARα coactivator recruitment
T1 sequence (Q07869 1-468): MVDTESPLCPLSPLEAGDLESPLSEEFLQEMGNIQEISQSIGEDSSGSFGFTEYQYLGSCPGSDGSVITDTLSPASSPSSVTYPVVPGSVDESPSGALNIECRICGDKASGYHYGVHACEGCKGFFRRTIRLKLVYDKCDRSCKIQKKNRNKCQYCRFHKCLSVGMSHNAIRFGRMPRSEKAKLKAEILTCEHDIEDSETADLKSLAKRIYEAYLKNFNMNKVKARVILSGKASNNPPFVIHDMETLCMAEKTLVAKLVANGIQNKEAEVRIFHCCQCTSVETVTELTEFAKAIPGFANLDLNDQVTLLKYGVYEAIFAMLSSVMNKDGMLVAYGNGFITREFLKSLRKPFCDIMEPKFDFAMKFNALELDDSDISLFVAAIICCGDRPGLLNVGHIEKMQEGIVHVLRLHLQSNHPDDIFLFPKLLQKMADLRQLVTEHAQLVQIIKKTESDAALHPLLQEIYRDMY

PPARδ = biological target: T2, PPARδ (Homo sapiens, UniProt Q03181); experiment: PPARδ coactivator recruitment
T2 sequence (Q03181 1-441): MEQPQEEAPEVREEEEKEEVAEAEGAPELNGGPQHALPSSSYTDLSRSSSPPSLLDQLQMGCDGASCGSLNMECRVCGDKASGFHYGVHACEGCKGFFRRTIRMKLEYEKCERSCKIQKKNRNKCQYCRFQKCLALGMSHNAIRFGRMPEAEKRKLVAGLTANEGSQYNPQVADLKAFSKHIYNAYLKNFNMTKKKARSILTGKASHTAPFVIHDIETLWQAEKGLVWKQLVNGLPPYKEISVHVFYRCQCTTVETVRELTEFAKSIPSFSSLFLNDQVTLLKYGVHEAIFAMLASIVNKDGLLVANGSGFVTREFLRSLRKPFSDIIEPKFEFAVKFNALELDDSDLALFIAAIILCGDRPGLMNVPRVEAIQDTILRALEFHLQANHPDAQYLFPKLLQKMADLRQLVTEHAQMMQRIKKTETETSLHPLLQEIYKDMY

Row | exposure to (R)-pioglitazone, higher than in the 45-mg Actos group [2] | exposure to the (S)-enantiomer, lower than in the 45-mg Actos group [2] | body-weight loss compared with vehicle- or PXL065-treated animals ([1]; MCD diet) | SMILES | body weight versus vehicle (C57BL/6J male mice) | fluid retention (total body water) (C57BL/6J male mice) | adiponectin ([1]; CD diet mice) | hepatic fibrosis ([1]; either diet) | markers of NASH progression [1] | inflammatory markers serum amyloid A, IL-1β and IL-6 (db/db mice) | serum adiponectin (db/db mice) | serum insulin (db/db mice) | reduction of hepatic steatosis and triglycerides, compared with pioglitazone ([1]; CD diet mice) | agonist activity at PPARα (PPARα) | agonist activity at PPARδ (PPARδ)
1 | – | – | – | [2H][C@@]1(Cc2ccc(OCCc3ccc(CC)cn3)cc2)SC(=O)NC1=O [d‐S‐pio, deuterated (S)‐pioglitazone] | significantly increased body weight over vehicle | trend was observed for increased fluid retention; also recorded: a trend was observed | increase | antifibrotic effect similar to that observed with PXL065 and pioglitazone | overall without effect | no effect | significantly increased | trend toward significant reduction | – | – | –
2 | 19% | 42% | – | [2H][C@]1(Cc2ccc(OCCc3ccc(CC)cn3)cc2)SC(=O)NC1=O [PXL065, deuterated (R)‐pioglitazone] | did not increase body weight | – | increase | – | significantly affected all markers of NASH progression | significantly decreased | nonsignificant trend | – | superior to pioglitazone | – | –
3 | – | – | weight loss tended to be less | CCc1ccc(CCOc2ccc(CC3SC(=O)NC3=O)cc2)nc1 (centres unmarked) [pioglitazone, reference compound] | significantly increased body weight over vehicle | trend was observed for increased fluid retention; also recorded: significant increase in total body water | increase | – | significantly affected all markers of NASH progression | significantly decreased | significantly increased | significantly decreased | – | Neither pioglitazone, PXL065, nor d‐S‐pio showed binding to PPARα or agonist activity at PPARα or PPARδ | Neither pioglitazone, PXL065, nor d‐S‐pio showed binding to PPARα or agonist activity at PPARα or PPARδ
